# System: Chenopodium album
# Experiment: Test Example 3: herbicidal effect test by treatment of dry field farming soil (one day after seeding)
# Type: in vivo
# Conditions: 120 g/10a active ingredient, evaluated 14 days after treatment
# How it was run: (§1)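 Herbicidal rate (%) = {1 − treated/untreated mean plant dry weight} × 100, scored 14 days after spraying, duplicate pots per concentration. Emulsified compound was water-diluted and applied to soil surface one day post-seeding at 120 g a.i. per 10 ares.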
row,SMILES,"herbicidal rate, Chenopodium album [%]"
1,COCCOC(=O)N(c1ccccc1Cc1c(C)n(C(C)c2ccccc2)oc1=O)S(=O)(=O)C(F)(F)F (centres unmarked) [Compound 1-736],90
2,Cc1c(Cc2ccccc2N(C(=O)OCC(C)C)S(=O)(=O)C(F)(F)F)c(=O)on1C(C)c1ccccc1 (centres unmarked) [Compound 1-678],90

# System: Echinochloa crus-galli
# Experiment: as above
# Type: in vivo
# Conditions: 120 g/10a active ingredient, evaluated 14 days after treatment
# How it was run: as §1
row,SMILES,"herbicidal rate, Echinochloa crus-galli [%]"
1,COCCOC(=O)N(c1ccccc1Cc1c(C)n(C(C)c2ccccc2)oc1=O)S(=O)(=O)C(F)(F)F (centres unmarked) [Compound 1-736],90
2,Cc1c(Cc2ccccc2N(C(=O)OCC(C)C)S(=O)(=O)C(F)(F)F)c(=O)on1C(C)c1ccccc1 (centres unmarked) [Compound 1-678],90

# System: Amaranthus viridis
# Experiment: as above
# Type: in vivo
# Conditions: 120 g/10a active ingredient, evaluated 14 days after treatment
# How it was run: as §1
row,SMILES,"herbicidal rate, Amaranthus viridis [%]"
1,COCCOC(=O)N(c1ccccc1Cc1c(C)n(C(C)c2ccccc2)oc1=O)S(=O)(=O)C(F)(F)F (centres unmarked) [Compound 1-736],90
2,Cc1c(Cc2ccccc2N(C(=O)OCC(C)C)S(=O)(=O)C(F)(F)F)c(=O)on1C(C)c1ccccc1 (centres unmarked) [Compound 1-678],90

# System: southern crabgrass
# Experiment: as above
# Type: in vivo
# Conditions: 120 g/10a active ingredient, evaluated 14 days after treatment
# How it was run: as §1
row,SMILES,"herbicidal rate, southern crabgrass [%]"
1,COCCOC(=O)N(c1ccccc1Cc1c(C)n(C(C)c2ccccc2)oc1=O)S(=O)(=O)C(F)(F)F (centres unmarked) [Compound 1-736],90
2,Cc1c(Cc2ccccc2N(C(=O)OCC(C)C)S(=O)(=O)C(F)(F)F)c(=O)on1C(C)c1ccccc1 (centres unmarked) [Compound 1-678],90

# System: Chenopodium album
# Experiment: Test Example 4: herbicidal effect test by treatment of leave and stem in dry field farming (seven days after seeding)
# Type: in vivo
# Conditions: 120 g/10a active ingredient; emulsion sprayed seven days after seeding; evaluated 14 days after treatment
# How it was run: (§2)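 Twenty seeds per species were mixed into the top 1 cm of alluvial soil in 36 cm^2 pots; emulsions were sprayed seven days after seeding at 100 L per 10 ares (120 g active ingredient per 10 ares). Herbicidal rate (%) = {1 − treated/untreated mean dry weight} × 100, 14 days after treatment, duplicate.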
row,SMILES,"herbicidal effect (herbicidal rate), Chenopodium album [%]"
1,COCCOC(=O)N(c1ccccc1Cc1c(C)n(C(C)c2ccccc2)oc1=O)S(=O)(=O)C(F)(F)F (centres unmarked) [Compound 1-736],40
2,Cc1c(Cc2ccccc2N(C(=O)OCC(C)C)S(=O)(=O)C(F)(F)F)c(=O)on1C(C)c1ccccc1 (centres unmarked) [Compound 1-678],40

# System: Echinochloa crus-galli
# Experiment: as above
# Type: in vivo
# Conditions: 120 g/10a active ingredient; emulsion sprayed seven days after seeding; evaluated 14 days after treatment
# How it was run: as §2
row,SMILES,"herbicidal effect (herbicidal rate), Echinochloa crus-galli [%]"
1,COCCOC(=O)N(c1ccccc1Cc1c(C)n(C(C)c2ccccc2)oc1=O)S(=O)(=O)C(F)(F)F (centres unmarked) [Compound 1-736],90
2,Cc1c(Cc2ccccc2N(C(=O)OCC(C)C)S(=O)(=O)C(F)(F)F)c(=O)on1C(C)c1ccccc1 (centres unmarked) [Compound 1-678],90

# System: Amaranthus viridis
# Experiment: as above
# Type: in vivo
# Conditions: 120 g/10a active ingredient; emulsion sprayed seven days after seeding; evaluated 14 days after treatment
# How it was run: as §2
row,SMILES,"herbicidal effect (herbicidal rate), Amaranthus viridis [%]"
1,COCCOC(=O)N(c1ccccc1Cc1c(C)n(C(C)c2ccccc2)oc1=O)S(=O)(=O)C(F)(F)F (centres unmarked) [Compound 1-736],40
2,Cc1c(Cc2ccccc2N(C(=O)OCC(C)C)S(=O)(=O)C(F)(F)F)c(=O)on1C(C)c1ccccc1 (centres unmarked) [Compound 1-678],40

# System: southern crabgrass
# Experiment: as above
# Type: in vivo
# Conditions: 120 g/10a active ingredient; emulsion sprayed seven days after seeding; evaluated 14 days after treatment
# How it was run: as §2
row,SMILES,"herbicidal effect (herbicidal rate), southern crabgrass [%]"
1,COCCOC(=O)N(c1ccccc1Cc1c(C)n(C(C)c2ccccc2)oc1=O)S(=O)(=O)C(F)(F)F (centres unmarked) [Compound 1-736],90
2,Cc1c(Cc2ccccc2N(C(=O)OCC(C)C)S(=O)(=O)C(F)(F)F)c(=O)on1C(C)c1ccccc1 (centres unmarked) [Compound 1-678],90

# System: broad leaf weeds (Lindernia pyxidaria and Monochoria vaginalis)
# Experiment: Test Example 2: herbicidal effect test by treatment during growing period in paddy rice cultivation (seven days after seeding)
# Type: in vivo
# Conditions: Lindernia pyxidaria, 120 g/10a active ingredient, assessed 14 days after treatment, dry weight vs untreated area
# How it was run: (§3)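 Emulsion formulations, diluted in water, applied dropwise to flooded pots (about 3 cm water) 7 days post-seeding at 120 g a.i./10 ares. Weeds sown 30 seeds each, 0–1 cm deep in puddled paddy soil; greenhouse. Readout: % reduction in plant dry weight vs untreated, day 14, duplicates.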
row,SMILES,Herbicidal rate (%) Lindernia pyxidaria [%]
1,COCCOC(=O)N(c1ccccc1Cc1c(C)n(C(C)c2ccccc2)oc1=O)S(=O)(=O)C(F)(F)F (centres unmarked) [Compound 1-736],90
2,Cc1c(Cc2ccccc2N(C(=O)OCC(C)C)S(=O)(=O)C(F)(F)F)c(=O)on1C(C)c1ccccc1 (centres unmarked) [Compound 1-678],90

# Same assay, conditions: Monochoria vaginalis, 120 g/10a active ingredient, assessed 14 days after treatment, dry weight vs untreated area
row,SMILES,Herbicidal rate (%) Monochoria vaginalis [%]
1,COCCOC(=O)N(c1ccccc1Cc1c(C)n(C(C)c2ccccc2)oc1=O)S(=O)(=O)C(F)(F)F (centres unmarked) [Compound 1-736],90
2,Cc1c(Cc2ccccc2N(C(=O)OCC(C)C)S(=O)(=O)C(F)(F)F)c(=O)on1C(C)c1ccccc1 (centres unmarked) [Compound 1-678],90

# System: Echinochloa crus-galli
# Experiment: as above
# Type: in vivo
# Conditions: 120 g/10a active ingredient, assessed 14 days after treatment, dry weight vs untreated area
# How it was run: as §3
row,SMILES,Herbicidal rate (%) Echinochloa crus-galli [%]
1,COCCOC(=O)N(c1ccccc1Cc1c(C)n(C(C)c2ccccc2)oc1=O)S(=O)(=O)C(F)(F)F (centres unmarked) [Compound 1-736],90
2,Cc1c(Cc2ccccc2N(C(=O)OCC(C)C)S(=O)(=O)C(F)(F)F)c(=O)on1C(C)c1ccccc1 (centres unmarked) [Compound 1-678],90

# System: Scirpus juncoides
# Experiment: as above
# Type: in vivo
# Conditions: 120 g/10a active ingredient, assessed 14 days after treatment, dry weight vs untreated area
# How it was run: as §3
row,SMILES,Herbicidal rate (%) Scirpus juncoides [%]
1,COCCOC(=O)N(c1ccccc1Cc1c(C)n(C(C)c2ccccc2)oc1=O)S(=O)(=O)C(F)(F)F (centres unmarked) [Compound 1-736],90
2,Cc1c(Cc2ccccc2N(C(=O)OCC(C)C)S(=O)(=O)C(F)(F)F)c(=O)on1C(C)c1ccccc1 (centres unmarked) [Compound 1-678],90

# System: broad leaf weeds (Lindernia pyxidaria and Monochoria vaginalis)
# Experiment: Test Example 1: herbicidal effect test by treatment of rice paddy soil (immediately after seeding)
# Type: in vivo
# Conditions: Lindernia pyxidaria, 120 g/10a active ingredient, dry weight vs untreated area, 14 days after treatment
# How it was run: (§4)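 Applied at 120 g a.i./10 ares as diluted emulsion dropped into flooded (~3 cm) paddy soil pots right after sowing seeds 0–1 cm deep; greenhouse, two replicates. At day 14, dry weight of treated versus untreated plants gives % herbicidal rate.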
row,SMILES,Herbicidal rate (%) Lindernia pyxidaria [%]
1,COCCOC(=O)N(c1ccccc1Cc1c(C)n(C(C)c2ccccc2)oc1=O)S(=O)(=O)C(F)(F)F (centres unmarked) [Compound 1-736],90
2,Cc1c(Cc2ccccc2N(C(=O)OCC(C)C)S(=O)(=O)C(F)(F)F)c(=O)on1C(C)c1ccccc1 (centres unmarked) [Compound 1-678],90

# Same assay, conditions: Monochoria vaginalis, 120 g/10a active ingredient, dry weight vs untreated area, 14 days after treatment
row,SMILES,Herbicidal rate (%) Monochoria vaginalis [%]
1,COCCOC(=O)N(c1ccccc1Cc1c(C)n(C(C)c2ccccc2)oc1=O)S(=O)(=O)C(F)(F)F (centres unmarked) [Compound 1-736],90
2,Cc1c(Cc2ccccc2N(C(=O)OCC(C)C)S(=O)(=O)C(F)(F)F)c(=O)on1C(C)c1ccccc1 (centres unmarked) [Compound 1-678],90

# System: Echinochloa crus-galli
# Experiment: as above
# Type: in vivo
# Conditions: 120 g/10a active ingredient, dry weight vs untreated area, 14 days after treatment
# How it was run: as §4
row,SMILES,Herbicidal rate (%) Echinochloa crus-galli [%]
1,COCCOC(=O)N(c1ccccc1Cc1c(C)n(C(C)c2ccccc2)oc1=O)S(=O)(=O)C(F)(F)F (centres unmarked) [Compound 1-736],90
2,Cc1c(Cc2ccccc2N(C(=O)OCC(C)C)S(=O)(=O)C(F)(F)F)c(=O)on1C(C)c1ccccc1 (centres unmarked) [Compound 1-678],90

# System: Scirpus juncoides
# Experiment: as above
# Type: in vivo
# Conditions: 120 g/10a active ingredient, dry weight vs untreated area, 14 days after treatment
# How it was run: as §4
row,SMILES,Herbicidal rate (%) Scirpus juncoides [%]
1,COCCOC(=O)N(c1ccccc1Cc1c(C)n(C(C)c2ccccc2)oc1=O)S(=O)(=O)C(F)(F)F (centres unmarked) [Compound 1-736],90
2,Cc1c(Cc2ccccc2N(C(=O)OCC(C)C)S(=O)(=O)C(F)(F)F)c(=O)on1C(C)c1ccccc1 (centres unmarked) [Compound 1-678],90

# From US11109593B2, “Isoxazolin-5-one derivative and herbicide containing same as active ingredient” (HOKKO CHEMICAL INDUSTRY CO., LTD., priority 2017, dated 2021)
